# According to patent publication US7217534B2, “Methods of screening apoptosis modulating compounds, compounds identified by said methods and use of said compounds as therapeutic agents” (Institut Pasteur, priority 2002, dated 2007):
# B1: IL-4: Murine rIL-4 or supernatant of a HeLa subline transfected with PKCRIL-4.neo, used as source of murine IL-4 (protein, UniProt P07750 21-140, looked up)
# Interleukin-4: HIHGCDKNHLREIIGILNEVTGEGTPCTEMDVPNVLTATKNTTESELVCRASKVLRIFYLKHGKTPCLKKNSSVLMELQRLFRAFRCLDSSISCTMNESKSTSLKDFLESLKSIMQMDYS
# Columns and labels:
# [1] = system: IL-4-stimulated cells (TS1αβ murine T cell line); assay: Cholesterol depletion, raft association of Bad and Lck by CTx-FITC confocal microscopy; assay type: cell-based; settings: 10 mM, 30 min, 37° C., serum-free medium
# Procedure: A) IL-4-stimulated cells were serum-starved for 30 min and then treated with or without 10 mM M-β-CD for 30 min at 37° C. before incubation with CTx-FITC and anti-Bad or anti-Lck antibodies, followed by Cy3-labeled secondary antibody. Then, cells were analyzed by confocal microscopy. Similar results were obtained in two independent experiments. Single confocal sections show green (FITC) and red (Cy3) fluorescence. B) IL-4-stimulated cells were serum-starved for 30 min and then treated with or without 10 mM M-β-CD for 30 min at 37° C., then washed and transferred to complete medium supplemented with IL-4. At different times, apoptosis was measured. Sub G1 region of the fluorescence scale was used to determine the percentage of cells present in the initial step of apoptosis. Similar results were obtained in two independent experiments. White bars, control cells; grey bars, M-β-CD-treated cells. […]
# IL-4-stimulated or -deprived cells were fixed with 1% paraformaidehyde for 5 min on ice, permeabilized and then incubated with CTx-FITC (20 min, 6 μg/ml) and anti-Bad antibody for 1 h in PBS-BSA. […] Finally, and after several washing steps, cells were incubated with methanol at −20° C. for 10 min, mounted wiht Vectashield medium, and analyzed by confocal microscopy. The program used for quantification of samples was Leica TSC NT version 1.5.451 (Leica, Lasertechnik, Heidelberg, Germany). […]
# [2] = system: IL-4-stimulated cells (TS1αβ murine T cell line); assay: Apoptosis by cell cycle analysis (sub-G1 region, propidium iodide flow cytometry); assay type: cell-based
# Procedure: A) IL-4-stimulated cells were serum-starved for 30 min and then treated with or without 10 mM M-β-CD for 30 min at 37° C. before incubation with CTx-FITC and anti-Bad or anti-Lck antibodies, followed by Cy3-labeled secondary antibody. Then, cells were analyzed by confocal microscopy. Similar results were obtained in two independent experiments. Single confocal sections show green (FITC) and red (Cy3) fluorescence. B) IL-4-stimulated cells were serum-starved for 30 min and then treated with or without 10 mM M-β-CD for 30 min at 37° C., then washed and transferred to complete medium supplemented with IL-4. At different times, apoptosis was measured. Sub G1 region of the fluorescence scale was used to determine the percentage of cells present in the initial step of apoptosis. Similar results were obtained in two independent experiments. White bars, control cells; grey bars, M-β-CD-treated cells.
# (§1) TS1αβ is a murine T cell line that can be propagated independently in IL-2, IL-4 or IL-9 Cells were cultured in RPMI-1640 as previously described (Pitton et al., 1993, Cytokine 5, 362–371). Murine rIL-4 or supernatant of a HeLa subline transfected with PKCRIL-4.neo was used as a source of murine IL-4. Fluorescein isothiocyanate (FITC-)-labeled cholera toxin (CTx) B subunit, CTx-Biotin and methyl-β-cyclodextrin (M-β-CD) were obtained from Sigma-Aldrich (St. Louis, Mo.). Cy3- and Cy2-conjugated secondary antibodies were purchased from Molecular Probes (Eugene, Oreg.). Anti-mitochondria serum (mito 2813, pyruvate dehydrogenase) was a gift from Dr A. Serrano (CNB, Madrid, Spain).
# A total of 2×10^5 IL-4-stimulated cells treated with or without M-β-CD were washed, resuspended in PBS, permeabilized with 0.1% Nonidet P-40 and stained with 50 μg/ml propidium iodide (PI). At different times, samples were analyzed using a EpicsXL flow cytometer (Coulter, Hialeah, Fla.). Apoptosis was measured as the percentage of cells in the sub-G1 region of the fluorescence scale having an hypodiploid DNA content.
# Given that exclusion of Bad from rafts was also observed in apoptotic IL-4-deprived cells (FIG. 3A), it was analyzed whether Bad association to rafts and its integrity was necessary for prevention of apoptosis. For this purpose, IL-4-stimulated cells were treated for 30 min with or without M-β-CD in serum-free medium, then washed, resuspended in IL-4-supplemented complete medium and analyzed for induction of apoptosis at different times (FIG. 4B). […] Eight hours upon treatment, the amount of apoptotic cells detected in treated and non treated cells were similar because addition of serum restores the lipid composition of the membrane.
# Bad = assay: Serine phosphorylation of Bad by immunoprecipitation and western blot; assay type: cell-based, murine; settings: anti-Bad serine 136, 112 and 155 blots, IL-4-stimulated cells
# Description: A) Cytoplasmic extracts from IL-4-stimulated or -deprived cells were immunoprecipitated with anti-Bad antibody and blotted with anti-Bad serine 136, 112 and 155. As internal control, the blot was developed with anti-Bad. Positive control for serine 112 and 136 phosphorylation, IL-2-stimulated cells; positive control for serine 155 phosphorylation of Bad, Bad-transfected COS cells (C). […] Molecular weight of the corresponding proteins is shown.
# as §1, with “Spain). […]” for “Spain).”
# Posttranslational modifications of Bad such as phosphorylation, and its role in Bad localization in rafts or mitochondria was further analyzed. […]
molecule,measurement,setting,value
methyl-β-cyclodextrin [M-β-CD],raft formation and association of Lck and Bad with rafts,[1],severe disruption of raft formation and association of Lck and Bad with rafts
same,time of highest level of apoptosis after treatment,"[2]; 30 min treatment in serum-free medium, then IL-4-supplemented complete medium",5 h
same,level of apoptosis compared with control non treated cells,"[2]; 30 min treatment in serum-free medium, then IL-4-supplemented complete medium, different times",stronger level of apoptosis
same,amount of apoptotic cells in treated and non treated cells,"[2]; eight hours upon treatment, serum added back",similar
B1,level of apoptosis in IL-4-stimulated cells,"[2]; control IL-4-stimulated cells versus IL-4-deprived cells, 4 h to 24 h",no significant level of apoptosis
same,serine phosphorylation of Bad,Bad,"induces serine 136 phosphorylation of Bad, but not serine 112 and 155"
